This is an account of results in paper PMC5472428 (Drug Design, Development and Therapy, 2017).

Data set [1] in a line: Pharmacokinetic studies in rabbits. Format: in vivo. The following applies: Albino, rabbit, plasma, po, 1 mg/kg.
The conditions of data set [2]: poor aqueous solubility and good permeability; cited from earlier work.

`CC(C)(C)NC(=O)[C@H]1CC[C@H]2[C@@H]3CC[C@H]4NC(=O)C=C[C@]4(C)[C@H]3CC[C@]12C` [FIN, (5alpha,17beta)-(1,1-dimethylethyl)-3-oxo-4-azaandrost-1-ene-17-carboxamide]: in data set [1], the AUC was determined as 782 ± 93.7 ng·h/mL, the Cmax is 39.2 ± 9.92 ng/mL, the Tmax came to 3.5 ± 0.37 h and the half-life is 661 ± 130 min. In addition, the k el in data set [1] is 1.72e-05 s⁻¹. Besides, the “Biopharmaceutics Classification System (BCS) class” value in data set [2] is “Class II”.
